Measured values published in ChEMBL document CHEMBL1212738, “Phenotypic and genotypic characterization of Enterobacteriaceae with decreased susceptibility to carbapenems: results from large hospital-based surveillance studies in China” (2010).
In brackets after ≈: the same amount, converted by molar mass.

Legend:
Klebsiella pneumoniae [1] = experiment: Antimicrobial activity against carbapenem-resistant Klebsiella pneumoniae PU8 deficient in SHV-11, DHA-1, aac(6')-Ib-cr, ompK35/36 by CLSI method; type: functional
Klebsiella pneumoniae [2] = experiment: Antimicrobial activity against carbapenem-resistant Klebsiella pneumoniae SZ61 deficient in TEM-1, SHV-1a, CMY-2, ompK35/36 by CLSI method; type: functional
Klebsiella pneumoniae [3] = experiment: Antimicrobial activity against Klebsiella pneumoniae ZJ71T expressing KPC-2 by CLSI method; type: functional
Escherichia coli [4] = experiment: Antimicrobial activity against Escherichia coli ZJ87 expressing KPC-2, TEM-1, ompC by CLSI method; type: functional
Klebsiella pneumoniae [5] = experiment: Antimicrobial activity against Klebsiella pneumoniae FZ49T expressing IMP-8, TEM-1, CTX-M-14, qnrB2, aac(6')-Ib by CLSI method; type: functional
Klebsiella pneumoniae [6] = experiment: Antimicrobial activity against carbapenem-resistant Klebsiella pneumoniae CY75 deficient in SHV-11, DHA-1, ompK35/36 by CLSI method; type: functional
Klebsiella pneumoniae [7] = experiment: Antimicrobial activity against carbapenem-resistant Klebsiella pneumoniae XJ81 deficient in TEM-1, SHV-12, DHA-1, aac(6')-Ib, ompK35/36 by CLSI method; type: functional
Enterobacter cloacae [8] = experiment: Antimicrobial activity against carbapenem-resistant Enterobacter cloacae RJ94 deficient in IMP-4, TEM-1, CTX-M-3, ompC by CLSI method; type: functional
Escherichia coli [9] = experiment: Antimicrobial activity against carbapenem-resistant Escherichia coli PU102 deficient in TEM-1, CTX-M-14, CMY-2, aac(6')-Ib, ompC DEc, ompF by CLSI method; type: functional
Klebsiella aerogenes [10] = experiment: Antimicrobial activity against carbapenem-resistant Enterobacter aerogenes WH85 deficient in TEM-1, CTX-M-3, ompC/F by CLSI method; type: functional
Klebsiella pneumoniae [11] = experiment: Antimicrobial activity against carbapenem-resistant Klebsiella pneumoniae PU104 deficient in TEM-1, SHV-11, CTX-M-15, qnrS1, ompK35/36 by CLSI method; type: functional
Escherichia coli [12] = experiment: Antimicrobial activity against Escherichia coli C600 transconjugant GZ66T expressing SHV-11, DHA-1 by CLSI method
Klebsiella pneumoniae [13] = experiment: Antimicrobial activity against carbapenem-resistant Klebsiella pneumoniae SX67 deficient in SHV-2, CTX-M-14, DHA-1, qnrB6/S1, aac(6')-Ib-cr, ompK35/36 by CLSI method; type: functional
Citrobacter freundii [14] = experiment: Antimicrobial activity against Citrobacter freundii SZ63T expressing IMP-4, qnrS1by CLSI method; type: functional
Klebsiella pneumoniae [15] = experiment: Antimicrobial activity against carbapenem-resistant Klebsiella pneumoniae ZJ18 deficient in KPC-2, SHV-28, DHA-1, ompK35 by CLSI method; type: functional
Escherichia coli [16] = experiment: Antimicrobial activity against Escherichia coli ZJ86T expressing KPC-2 by CLSI method; type: functional
Klebsiella pneumoniae [17] = experiment: Antimicrobial activity against Klebsiella pneumoniae ZJ68T expressing CTX-M-15 by CLSI method; type: functional
Citrobacter freundii [18] = experiment: Antimicrobial activity against Citrobacter freundii RJ78 expressing CMY-2, qnrA1, aac(6')-Ib-cr, ompC by CLSI method; type: functional
Escherichia coli [19] = experiment: Antimicrobial activity against Escherichia coli HX74T expressing CTX-M-3 by CLSI method; type: functional
Escherichia coli [20] = experiment: Antimicrobial activity against Escherichia coli C600 transconjugant WH77T expressing IMP-4, TEM-1, CTX-M-3, qnrS1 by CLSI method
Enterobacter cloacae [21] = experiment: Antimicrobial activity against carbapenem-resistant Enterobacter cloacae GX24 deficient in TEM-1, DHA-1, aac(6')-Ib, ompC by CLSI method; type: functional
Klebsiella pneumoniae [22] = experiment: Antimicrobial activity against carbapenem-resistant Klebsiella pneumoniae GZ84 deficient in SHV-11, aac(6')-Ib-cr, ompK35 by CLSI method; type: functional
Enterobacter cloacae [23] = experiment: Antimicrobial activity against carbapenem-resistant Enterobacter cloacae WH103 deficient in IMP-4, TEM-1, CTX-M-3, qnrS1, ompC by CLSI method; type: functional
Enterobacter cloacae [24] = experiment: Antimicrobial activity against carbapenem-resistant Enterobacter cloacae SZ92 deficient in IMP-4, TEM-1, CTX-M-14, DHA-1, qnrB10/B4-like, aac(6')-Ib, ompC by CLSI method; type: functional
Escherichia coli [25] = experiment: Antimicrobial activity against Escherichia coli PU101T expressing CMY-2 by CLSI method; type: functional
Citrobacter freundii [26] = experiment: Antimicrobial activity against Citrobacter freundii SZ62 expressing IMP-4, TEM-1, CMY-2, qnrS1, aac(6')-Ib-cr by CLSI method; type: functional
Klebsiella pneumoniae [27] = experiment: Antimicrobial activity against carbapenem-resistant Klebsiella pneumoniae FZ49 deficient in IMP-8, TEM-1, SHV-11, CTX-M-14, qnrB2, aac(6')-Ib, ompK35/36 by CLSI method; type: functional
Klebsiella aerogenes [28] = experiment: Antimicrobial activity against carbapenem-resistant Enterobacter aerogenes PU41 deficient in CTX-M-14, DHA-1, qnrS1, ompC DEc, ompF by CLSI method; type: functional
Escherichia coli [29] = experiment: Antimicrobial activity against Escherichia coli PU60T expressing CMY-2 by CLSI method; type: functional
Klebsiella pneumoniae [30] = experiment: Antimicrobial activity against carbapenem-resistant Klebsiella pneumoniae GZ83 deficient in SHV-11, CTX-M-14, ompK35/36 by CLSI method; type: functional
Enterobacter cloacae [31] = experiment: Antimicrobial activity against carbapenem-resistant Enterobacter cloacae NJ90 deficient in CTX-M-14, ompC/F by CLSI method; type: functional
Escherichia coli [32] = experiment: Antimicrobial activity against carbapenem-resistant Escherichia coli PU43 deficient in TEM-1, CTX-M-14, aac(6')-Ib, ompC/F by CLSI method; type: functional
Klebsiella pneumoniae [33] = experiment: Antimicrobial activity against Klebsiella pneumoniae WH76 expressing IMP-4, TEM-1, SHV-14, CTX-M-3, qnrS1 by CLSI method; type: functional
Klebsiella pneumoniae [34] = experiment: Antimicrobial activity against carbapenem-resistant Klebsiella pneumoniae PU105 deficient TEM-1, SHV-12, CTX-M-14, DHA-1, qnrB10/B4-like, aac(6')-Ib-cr, ompK35/36 by CLSI method; type: functional
Enterobacter cloacae [35] = experiment: Antimicrobial activity against carbapenem-resistant Enterobacter cloacae NJ88 deficient in CTX-M-14, ompC/F by CLSI method; type: functional
Klebsiella pneumoniae [36] = experiment: Antimicrobial activity against Klebsiella pneumoniae CY1T expressing SHV-11, DHA-1 by CLSI method; type: functional
Klebsiella pneumoniae [37] = experiment: Antimicrobial activity against Klebsiella pneumoniae ZJ99 expressing KPC-2, CTX-M-3, qnrS1, ompK35 DE by CLSI method; type: functional
Klebsiella pneumoniae [38] = experiment: Antimicrobial activity against carbapenem-resistant Klebsiella pneumoniae ZJ71 deficient in KPC-2, TEM-1, SHV-11, CTX-M-14, ompK35 by CLSI method; type: functional
Escherichia coli [39] = experiment: Antimicrobial activity against carbapenem-resistant Escherichia coli HX74 deficient in TEM-1, CTX-M-14, CTX-M-3, aac(6')-Ibcr, ompC/F by CLSI method; type: functional

Compound	MIC (Klebsiella pneumoniae [1])	MIC (Klebsiella pneumoniae [2])	MIC (Klebsiella pneumoniae [3])	MIC (Escherichia coli [4])	MIC (Klebsiella pneumoniae [5])	MIC (Klebsiella pneumoniae [6])	MIC (Klebsiella pneumoniae [7])	MIC (Enterobacter cloacae [8])	MIC (Escherichia coli [9])	MIC (Klebsiella aerogenes [10])	MIC (Klebsiella pneumoniae [11])	MIC (Klebsiella pneumoniae [13])	MIC (Citrobacter freundii [14])	MIC (Klebsiella pneumoniae [15])	MIC (Escherichia coli [16])	MIC (Klebsiella pneumoniae [17])	MIC (Citrobacter freundii [18])	MIC (Escherichia coli [19])	MIC (Enterobacter cloacae [21])	MIC (Klebsiella pneumoniae [22])	further results
C[C@@H](O)[C@H]1C(=O)N2C(C(=O)O)=C(S[C@@H]3CN[C@H](C(=O)N(C)C)C3)[C@H](C)[C@H]12 [MEROPENEM]	8 µg/mL (≈ 20.9 µM)	8 µg/mL (≈ 20.9 µM)	4 µg/mL (≈ 10.4 µM)	8 µg/mL (≈ 20.9 µM)	1 µg/mL (≈ 2.61 µM)	8 µg/mL (≈ 20.9 µM)	2 µg/mL (≈ 5.22 µM)	8 µg/mL (≈ 20.9 µM)	8 µg/mL (≈ 20.9 µM)	8 µg/mL (≈ 20.9 µM)	8 µg/mL (≈ 20.9 µM)	2 µg/mL (≈ 5.22 µM)	4 µg/mL (≈ 10.4 µM)	8 µg/mL (≈ 20.9 µM)	8 µg/mL (≈ 20.9 µM)	0.032 µg/mL (≈ 0.0834 µM)	2 µg/mL (≈ 5.22 µM)	0.064 µg/mL (≈ 0.167 µM)	2 µg/mL (≈ 5.22 µM)	1 µg/mL (≈ 2.61 µM)	MIC (Escherichia coli [12]): 0.032 µg/mL (≈ 0.0834 µM); MIC (Escherichia coli [20]): 4 µg/mL (≈ 10.4 µM); MIC (Enterobacter cloacae [23]): 8 µg/mL (≈ 20.9 µM); MIC (Enterobacter cloacae [24]): 8 µg/mL (≈ 20.9 µM); MIC (Escherichia coli [25]): 0.032 µg/mL (≈ 0.0834 µM); MIC (Citrobacter freundii [26]): 4 µg/mL (≈ 10.4 µM); MIC (Klebsiella pneumoniae [27]): 2 µg/mL (≈ 5.22 µM); MIC (Klebsiella aerogenes [28]): 8 µg/mL (≈ 20.9 µM); MIC (Escherichia coli [29]): 0.032 µg/mL (≈ 0.0834 µM); MIC (Klebsiella pneumoniae [30]): 8 µg/mL (≈ 20.9 µM)
POLYMYXIN B	1 µg/mL	0.5 µg/mL	0.5 µg/mL	0.5 µg/mL	0.25 µg/mL	1 µg/mL	0.5 µg/mL	0.5 µg/mL	0.5 µg/mL	0.5 µg/mL	0.5 µg/mL	1 µg/mL	0.5 µg/mL	0.5 µg/mL	0.5 µg/mL	0.5 µg/mL	2 µg/mL	0.25 µg/mL	2 µg/mL	0.5 µg/mL	MIC (Enterobacter cloacae [31]): 0.5 µg/mL; MIC (Escherichia coli [32]): 0.5 µg/mL; MIC (Klebsiella pneumoniae [33]): 1 µg/mL; MIC (Klebsiella pneumoniae [34]): 32 µg/mL; MIC (Enterobacter cloacae [35]): 0.5 µg/mL; MIC (Klebsiella pneumoniae [36]): 0.25 µg/mL; MIC (Klebsiella pneumoniae [37]): 1 µg/mL; MIC (Klebsiella pneumoniae [38]): 1 µg/mL; MIC (Enterobacter cloacae [23]): 0.5 µg/mL; MIC (Enterobacter cloacae [24]): 0.5 µg/mL; MIC (Escherichia coli [25]): 0.25 µg/mL; MIC (Citrobacter freundii [26]): 0.5 µg/mL; MIC (Klebsiella pneumoniae [27]): 1 µg/mL; MIC (Klebsiella aerogenes [28]): 0.5 µg/mL; MIC (Escherichia coli [39]): 0.5 µg/mL; MIC (Escherichia coli [29]): 0.25 µg/mL; MIC (Klebsiella pneumoniae [30]): 1 µg/mL
